Test system: Transport facilitation protein genes
Assay: DNA chip mRNA expression in yeast, transport facilitation protein genes (Table 5)
Assay type: cell-based, Saccharomyces cerevisiae S288C
Outline: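 Ratios compare mRNA levels in stressed and control S. cerevisiae. Each toxicant was applied for two hours to log-phase cultures at 25° C. at a sub-lethal, growth-inhibiting level; fluorescent cDNA (Cy3- or Cy5-dUTP) was hybridized to a genome-wide yeast chip for over 12 h at 65° C.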

Measured: The level of expressed mRNA in the presence of chemical substance/The level of expressed mRNA in the absence of chemical substance

CCCCC[C@H](O)CC(=O)CCc1ccc(O)c(OC)c1 [(13), gingerol]
2.5: yeast gene YKR105C | yeast gene YOR035C
2.2: yeast gene YBR068C | yeast gene YBR207W | yeast gene YOR332W
2.3: yeast gene YFL054C
0.3: yeast gene YPL036W
1.4: yeast gene YBR132C | yeast gene YCR098C | yeast gene YOL158C
1.1: yeast gene YHR048W | yeast gene YPL265W
1.9: yeast gene YCL038C | yeast gene YGL008C | yeast gene YGR055W | yeast gene YLR348C
3.0: yeast gene YBR293W
3.1: yeast gene YBR294W
1.6: yeast gene YDL128W | yeast gene YER119C | yeast gene YKL221W | yeast gene YLR378C | yeast gene YOL119C | yeast gene YOR316C
2.0: yeast gene YDL198C | yeast gene YDL245C | yeast gene YDR038C | yeast gene YGL104C | yeast gene YHL040C
0.7: yeast gene YDR086C | yeast gene YEL027W | yeast gene YHR026W | yeast gene YHR094C
1.7: yeast gene YOL156W
1.0: yeast gene YBR291C | yeast gene YGR191W | yeast gene YJL212C | yeast gene YJR121W | yeast gene YPL134C | yeast gene YPR194C
1.8: yeast gene YBR295W | yeast gene YDR039C | yeast gene YDR270W | yeast gene YFL041W | yeast gene YLR092W
0.5: yeast gene YBL030C | yeast gene YCL025C | yeast gene YCR024C-A | yeast gene YGR082W | yeast gene YGR260W | yeast gene YHR092C
1.2: yeast gene YDL210W | yeast gene YDR298C | yeast gene YDR345C | yeast gene YFL050C | yeast gene YHR175W | yeast gene YIL022W | yeast gene YKL188C | yeast gene YKL217W | yeast gene YPL271W
0.9: yeast gene YBL099W | yeast gene YBR127C | yeast gene YJR077C | yeast gene YMR162C
1.3: yeast gene YCR037C | yeast gene YDR387C | yeast gene YFL055W | yeast gene YKL016C | yeast gene YKR039W | yeast gene YKR067W | yeast gene YOR270C
2.4: yeast gene YGR197C | yeast gene YNL055C | yeast gene YOL163W
2.1: yeast gene YBR052C | yeast gene YOR130C
11.8: yeast gene YOR153W
1.5: yeast gene YGL167C | yeast gene YHL036W | yeast gene YIL056W | yeast gene YIL088C | yeast gene YLL055W | yeast gene YNR072W
3.8: yeast gene YHL047C
2.6: yeast gene YOR273C
0.6: yeast gene YDR342C | yeast gene YGR138C | yeast gene YLR081W | yeast gene YPR124W
0.8: yeast gene YBR298C | yeast gene YCL069W | yeast gene YDR343C | yeast gene YEL065W | yeast gene YFL011W | yeast gene YGR065C | yeast gene YGR224W | yeast gene YIL006W | yeast gene YJR095W | yeast gene YLR295C | yeast gene YML116W

From patent publication US8192962B2, “Processes for detecting toxic substances” (Daikin Industries, Ltd., priority 2001, dated 2012)
